Consider six molecules from ChEMBL document CHEMBL4184250, “Structure-activity studies of a macrocyclic peptide inhibitor of histone lysine demethylase 4A” (Bioorg Med Chem, 2018).

Where a SMILES comes first, the peptide text is derived from it. Bridges are numbered along the chain shown (N, C = ends). [ ]: non-standard residue; d: D form. NMeI = CC[C@H](C)[C@H](NC)C(=O)O; NMeC = CN[C@@H](CS)C(=O)O Bounds are passed on as bounds.

Data set [1] can be described thus: Drug uptake in human MCF7 cells assessed as cell area stained at 10 uM after 3 hrs by Hoechst 33342 staining based confocal microscopic analysis. It is filed as ADME. To be noted: mcf7, 3 h.
Data set [2] addresses T1, Lysine-specific demethylase 4A (Homo sapiens, UniProt O75164).
T1 sequence (O75164 whole entry): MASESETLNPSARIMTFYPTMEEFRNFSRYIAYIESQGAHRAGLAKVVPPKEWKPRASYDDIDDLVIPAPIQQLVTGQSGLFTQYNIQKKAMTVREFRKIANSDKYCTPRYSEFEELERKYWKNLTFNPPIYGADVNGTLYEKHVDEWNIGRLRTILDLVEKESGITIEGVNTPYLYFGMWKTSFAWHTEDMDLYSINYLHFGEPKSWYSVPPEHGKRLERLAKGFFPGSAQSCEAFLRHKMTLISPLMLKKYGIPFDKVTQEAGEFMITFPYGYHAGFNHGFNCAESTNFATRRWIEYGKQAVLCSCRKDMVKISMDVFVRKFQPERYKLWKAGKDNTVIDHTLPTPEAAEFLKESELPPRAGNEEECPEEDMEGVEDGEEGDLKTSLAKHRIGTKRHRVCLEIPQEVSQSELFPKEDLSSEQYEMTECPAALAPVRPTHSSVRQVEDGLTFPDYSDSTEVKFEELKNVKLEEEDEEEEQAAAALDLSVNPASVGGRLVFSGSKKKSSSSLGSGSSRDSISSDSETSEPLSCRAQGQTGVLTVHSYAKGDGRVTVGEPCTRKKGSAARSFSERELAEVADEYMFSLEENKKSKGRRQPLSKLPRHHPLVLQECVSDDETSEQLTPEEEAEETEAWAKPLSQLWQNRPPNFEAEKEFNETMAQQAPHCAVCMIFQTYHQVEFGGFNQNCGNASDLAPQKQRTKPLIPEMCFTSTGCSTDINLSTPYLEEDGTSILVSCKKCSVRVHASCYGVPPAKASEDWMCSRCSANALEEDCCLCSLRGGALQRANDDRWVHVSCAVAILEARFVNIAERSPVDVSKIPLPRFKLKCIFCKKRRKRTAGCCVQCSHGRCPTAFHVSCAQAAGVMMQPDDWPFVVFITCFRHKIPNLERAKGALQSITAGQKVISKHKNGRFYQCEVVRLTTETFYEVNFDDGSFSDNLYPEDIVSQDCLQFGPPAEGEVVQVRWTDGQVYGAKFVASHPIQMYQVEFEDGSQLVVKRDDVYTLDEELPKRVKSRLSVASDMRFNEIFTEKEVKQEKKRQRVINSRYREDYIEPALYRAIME
In words: Inhibition of full length FLAG-tagged KDM4A (unknown origin) expressed in human HeLa cells assessed as increase in H3K9me3 levels after 24 hrs by DAPI staining based immunofluorescence assay. The class given is cell-based.

In data set [3] the target is T1, Lysine-specific demethylase 4A. In words: Inhibition of KDM4A (unknown origin) expressed in Escherichia coli using biotinylated peptide as substrate pretreated for 15 mins followed by substrate addition by Alphascreen assay.
Data set [4] has the same target. As to the kind of experiment: Binding affinity to biotinylated-KDM4A (unknown origin) at 300 nM by bio-layer interferometric method. To be noted: read-out: Kd(app). (In general: In BLI a coated tip is dipped into the sample, and binding shifts an interference pattern.)
The target in data set [5] is T2, Lysine-specific demethylase 4C (Homo sapiens, UniProt Q9H3R0).
T2 sequence (Q9H3R0 whole entry): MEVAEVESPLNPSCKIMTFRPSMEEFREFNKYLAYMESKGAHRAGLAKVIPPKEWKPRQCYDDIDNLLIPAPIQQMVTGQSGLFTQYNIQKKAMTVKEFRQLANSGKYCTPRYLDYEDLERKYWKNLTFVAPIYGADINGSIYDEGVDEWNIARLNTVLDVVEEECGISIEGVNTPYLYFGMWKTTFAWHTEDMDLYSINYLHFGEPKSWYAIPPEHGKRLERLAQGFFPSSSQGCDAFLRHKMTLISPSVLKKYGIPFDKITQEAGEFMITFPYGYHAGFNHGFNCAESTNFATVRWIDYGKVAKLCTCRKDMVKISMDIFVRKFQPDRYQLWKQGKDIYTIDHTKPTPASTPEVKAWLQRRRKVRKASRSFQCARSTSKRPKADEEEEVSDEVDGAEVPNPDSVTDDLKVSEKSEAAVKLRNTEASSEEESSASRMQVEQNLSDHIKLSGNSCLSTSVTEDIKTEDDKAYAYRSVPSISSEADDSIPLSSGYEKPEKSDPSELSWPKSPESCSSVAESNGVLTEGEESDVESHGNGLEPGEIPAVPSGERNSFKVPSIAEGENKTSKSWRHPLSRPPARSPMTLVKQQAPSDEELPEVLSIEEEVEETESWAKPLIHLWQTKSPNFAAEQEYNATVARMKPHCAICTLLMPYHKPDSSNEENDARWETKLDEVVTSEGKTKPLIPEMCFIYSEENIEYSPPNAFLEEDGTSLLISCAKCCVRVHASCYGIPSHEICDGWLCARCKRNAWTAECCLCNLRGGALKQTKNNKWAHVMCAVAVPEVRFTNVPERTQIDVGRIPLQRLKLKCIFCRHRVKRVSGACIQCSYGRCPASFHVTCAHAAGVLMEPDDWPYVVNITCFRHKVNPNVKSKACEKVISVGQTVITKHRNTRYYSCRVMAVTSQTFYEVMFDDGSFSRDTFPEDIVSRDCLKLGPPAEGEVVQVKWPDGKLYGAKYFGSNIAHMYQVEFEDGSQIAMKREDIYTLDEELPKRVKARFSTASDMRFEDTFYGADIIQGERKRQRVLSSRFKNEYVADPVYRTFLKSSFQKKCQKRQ
As to the kind of experiment: Inhibition of KDM4C (unknown origin) expressed in Escherichia coli using biotinylated peptide as substrate pretreated for 15 mins followed by substrate addition by Alphascreen assay. On the technique in general: In Alpha technology, singlet oxygen from a donor bead excites a nearby acceptor bead.

A short description of data set [6]: Drug localization in lysosomes of human MCF7 cells at 10 uM after 3 hrs by Lysotracker red DND-99 staining based confocal microscopic analysis. Particulars: mcf7, 3 h; call rule not given here. The class given is ADME, subcellular, Lysosome.

Take `CC[C@H](C)[C@@H]1NC(=O)[C@H](CCCNC(=N)N)NC(=O)[C@H]([C@@H](C)CC)NC(=O)[C@H](Cc2ccc(O)cc2)NC(=O)CSC[C@@H](C(N)=O)N(C)C(=O)[C@H](Cc2c[nH]c3ccccc23)NC(=O)[C@H](CC(C)C)NC(=O)[C@H](Cc2c[nH]c3ccccc23)NC(=O)CNC(=O)[C@H](CO)NC(=O)[C@H](CCCNC(=N)N)NC(=O)[C@H](CCCNC(=N)N)NC1=O` ({CH2CO}-YIRIRRSGWLW[NMeC]-NH2; thioether N-12): the Drug uptake in data set [1] is given as 18%. In addition, in data set [2], the half-maximal effective concentration (EC50) (usually the concentration giving half of the maximal effect) was greater than 50000 nM. Besides, the 50% inhibitory concentration (IC50) (commonly the concentration needed to halve the response being measured) in data set [3] amounted to 34 nM; in data set [5], 53 nM. Also, the Kd in data set [4] came out at 8.3 nM.
On to `N=C(N)NCCC[C@@H]1NC(=O)CNC(=O)[C@H](Cc2ccc(O)cc2)NC(=O)CSC[C@@H](C(N)=O)NC(=O)[C@H](CCCNC(=N)N)NC(=O)[C@H](CCCNC(=N)N)NC(=O)[C@H](CCCNC(=N)N)NC(=O)[C@H](CCC(N)=O)NC(=O)[C@H](CCCNC(=N)N)NC(=O)[C@H](CCCCN)NC(=O)[C@H](CCCCN)NC(=O)[C@H](CCCCN)NC1=O` ({CH2CO}-YGRKKKRQRRRC-NH2; thioether N-12), for which the Drug uptake entry in data set [1] and in data set [6] was “Active” in each case.
For the molecule `CC[C@H](C)[C@@H]1NC(=O)[C@H](CCCNC(=N)N)NC(=O)[C@@H]2CCCN2C(=O)[C@@H](Cc2ccc(O)cc2)NC(=O)CSC[C@@H](C(N)=O)NC(=O)[C@H](Cc2c[nH]c3ccccc23)NC(=O)[C@H](CCCNC(=N)N)NC(=O)[C@H]([C@@H](C)CC)NC(=O)[C@@H](C)NC(=O)[C@H](CO)NC(=O)[C@H](CCCNC(=N)N)NC(=O)[C@H](CCCNC(=N)N)NC1=O`, the Drug uptake in data set [1] is given as 97.1%. Also, the EC50 in data set [2] (hela) was greater than 50000 nM. Also, the figures for the half-maximal inhibitory concentration (IC50) in data set [3] and in data set [5] were 208 nM and 173 nM, respectively. Moreover, the Kd in data set [4] was 14 nM.
Take `CC[C@H](C)[C@@H]1NC(=O)[C@H](CCCNC(=N)N)NC(=O)[C@H]([C@@H](C)CC)N(C)C(=O)[C@H](Cc2ccc(O)cc2)NC(=O)CSC[C@@H](C(N)=O)NC(=O)[C@H](Cc2c[nH]c3ccccc23)NC(=O)[C@H](CC(C)C)NC(=O)[C@H](Cc2c[nH]c3ccccc23)NC(=O)CNC(=O)[C@H](CO)NC(=O)[C@H](CCCNC(=N)N)NC(=O)[C@H](CCCNC(=N)N)NC1=O` ({CH2CO}-Y[NMeI]RIRRSGWLWC-NH2; thioether N-12): in data set [1], the Drug uptake turned out to be 55.6%. In addition, the EC50 in data set [2] is greater than 50000 nM. Further, the values for the 50% inhibitory concentration (IC50) in data set [3] and in data set [5] were 11 nM and 12 nM, respectively. In data set [4], the Kd was 14 nM.
On to `CC[C@H](C)[C@@H]1NC(=O)[C@H](CCCNC(=N)N)NC(=O)[C@H]([C@@H](C)CC)NC(=O)[C@H](Cc2ccc(O)cc2)NC(=O)CSC[C@@H](C(N)=O)NC(=O)[C@H](Cc2c[nH]c3ccccc23)NC(=O)[C@H](CC(C)C)NC(=O)[C@H](Cc2c[nH]c3ccccc23)NC(=O)CNC(=O)[C@H](CO)NC(=O)[C@H](CCCNC(=N)N)NC(=O)[C@H](CCCNC(=N)N)NC1=O` ({CH2CO}-YIRIRRSGWLWC-NH2; thioether N-12), for which the values for the Drug uptake in data set [1] and in data set [6] were 65.3% and “Active”, respectively. Besides, the concentration for a half-maximal effect (EC50) in data set [2] is greater than 50000 nM. Also, the half-inhibitory concentration (IC50) in data set [3] and in data set [5] was 23 nM throughout. Besides, the Kd in data set [4] came out at 42 nM.
`CC[C@H](C)[C@@H]1NC(=O)CNC(=O)[C@H](CO)NC(=O)[C@H](CCCNC(=N)N)NC(=O)[C@H](CCCNC(=N)N)NC(=O)[C@H]([C@@H](C)CC)NC(=O)[C@H](CCCNC(=N)N)NC(=O)[C@@H]2CCCN2C(=O)[C@H](Cc2ccc(O)cc2)NC(=O)CSC[C@@H](C(N)=O)N(C)C(=O)[C@H](Cc2c[nH]c3ccccc23)NC(=O)[C@H](CCCNC(=N)N)NC1=O` ({CH2CO}-YPRIRRSGIRW[NMeC]-NH2; thioether N-12): the Drug uptake in data set [1] is 28.2%. Moreover, in data set [2], the EC50 is greater than 50000 nM. Also, the half-inhibitory concentration (IC50) in data set [3] is 373 nM; in data set [5], 164 nM. For the same molecule, the Kd in data set [4] was determined as 9 nM.
